# From PubChem BioAssay (NCI)
#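 All cell lines were grown in 96-well plates and treated with compound for 48 hours. TGI: concentration producing complete growth inhibition.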
# Columns and labels:
# Assay in all cases: growth of human tumour cells (NCI), 48 h
# 786-0 renal = test system: 786-0 renal
# A498 renal = test system: A498 renal
# A549 NSCLC = test system: A549 NSCLC
# ACHN renal = test system: ACHN renal
# BT-549 breast = test system: BT-549 breast
# CCRF-CEM leukemia = test system: CCRF-CEM leukemia
# COLO 205 colon = test system: COLO 205 colon
# DU-145 prostate = test system: DU-145 prostate
# EKVX NSCLC = test system: EKVX NSCLC
# HCT-116 colon = test system: HCT-116 colon
# HCT-15 colon = test system: HCT-15 colon
# HL-60(TB) leukemia = test system: HL-60(TB) leukemia
# HOP-62 NSCLC = test system: HOP-62 NSCLC
# HOP-92 NSCLC = test system: HOP-92 NSCLC
# HT29 colon = test system: HT29 colon
# K-562 leukemia = test system: K-562 leukemia
# KM12 colon = test system: KM12 colon
# M14 melanoma = test system: M14 melanoma
# MALME-3M melanoma = test system: MALME-3M melanoma
# MCF7 breast = test system: MCF7 breast
# MDA-MB-435 = test system: MDA-MB-435
# MDA-N = test system: MDA-N
# MOLT-4 leukemia = test system: MOLT-4 leukemia
# NCI-H226 lung = test system: NCI-H226 lung
# NCI-H23 lung = test system: NCI-H23 lung
# NCI-H460 lung = test system: NCI-H460 lung
# NCI/ADR-RES ovarian = test system: NCI/ADR-RES ovarian
# OVCAR-3 ovarian = test system: OVCAR-3 ovarian
# OVCAR-5 ovarian = test system: OVCAR-5 ovarian
# OVCAR-8 ovarian = test system: OVCAR-8 ovarian
# PC-3 prostate = test system: PC-3 prostate
# RPMI-8226 leukemia = test system: RPMI-8226 leukemia
# RXF 393 renal = test system: RXF 393 renal
# SF-268 CNS = test system: SF-268 CNS
# SF-295 CNS = test system: SF-295 CNS
# SF-539 CNS = test system: SF-539 CNS
# SK-MEL-28 melanoma = test system: SK-MEL-28 melanoma
# SN12C renal = test system: SN12C renal
# SNB-19 CNS = test system: SNB-19 CNS
# SR leukemia = test system: SR leukemia
# SW-620 colon = test system: SW-620 colon
# TK-10 renal = test system: TK-10 renal
# U251 CNS = test system: U251 CNS
# UACC-257 melanoma = test system: UACC-257 melanoma
# UO-31 renal = test system: UO-31 renal
# CAKI-1 renal = test system: CAKI-1 renal
# HCC-2998 colon = test system: HCC-2998 colon
# MDA-MB-231 breast = test system: MDA-MB-231 breast
# NCI-H522 lung = test system: NCI-H522 lung
# OVCAR-4 ovarian = test system: OVCAR-4 ovarian
# SK-MEL-2 melanoma = test system: SK-MEL-2 melanoma
# SK-MEL-5 melanoma = test system: SK-MEL-5 melanoma
# SK-OV-3 ovarian = test system: SK-OV-3 ovarian
# T-47D breast = test system: T-47D breast
# UACC-62 melanoma = test system: UACC-62 melanoma
structure (smiles),measurement,setting,value
Cc1cc(C)c(NS(=O)c2cccc(Cl)c2)c(C)c1 (stereo unspecified),TGI,786-0 renal,> 100 µM
same,TGI,A498 renal,> 100 µM
same,TGI,A549 NSCLC,> 100 µM
same,TGI,ACHN renal,> 100 µM
same,TGI,BT-549 breast,> 100 µM
same,TGI,CCRF-CEM leukemia,> 100 µM
same,TGI,COLO 205 colon,> 100 µM
same,TGI,DU-145 prostate,> 100 µM
same,TGI,EKVX NSCLC,> 100 µM
same,TGI,HCT-116 colon,> 100 µM
same,TGI,HCT-15 colon,> 100 µM
same,TGI,HL-60(TB) leukemia,> 100 µM
same,TGI,HOP-62 NSCLC,> 100 µM
same,TGI,HOP-92 NSCLC,> 100 µM
same,TGI,HT29 colon,> 100 µM
same,TGI,K-562 leukemia,> 100 µM
same,TGI,KM12 colon,> 100 µM
same,TGI,M14 melanoma,> 100 µM
same,TGI,MALME-3M melanoma,> 100 µM
same,TGI,MCF7 breast,> 100 µM
same,TGI,MDA-MB-435,> 100 µM
same,TGI,MDA-N,> 100 µM
same,TGI,MOLT-4 leukemia,> 100 µM
same,TGI,NCI-H226 lung,> 100 µM
same,TGI,NCI-H23 lung,> 100 µM
same,TGI,NCI-H460 lung,> 100 µM
same,TGI,NCI/ADR-RES ovarian,> 100 µM
same,TGI,OVCAR-3 ovarian,> 100 µM
same,TGI,OVCAR-5 ovarian,> 100 µM
same,TGI,OVCAR-8 ovarian,> 100 µM
same,TGI,PC-3 prostate,> 100 µM
same,TGI,RPMI-8226 leukemia,> 100 µM
same,TGI,RXF 393 renal,> 100 µM
same,TGI,SF-268 CNS,> 100 µM
same,TGI,SF-295 CNS,> 100 µM
same,TGI,SF-539 CNS,> 100 µM
same,TGI,SK-MEL-28 melanoma,> 100 µM
same,TGI,SN12C renal,> 100 µM
same,TGI,SNB-19 CNS,> 100 µM
same,TGI,SR leukemia,> 100 µM
same,TGI,SW-620 colon,> 100 µM
same,TGI,TK-10 renal,> 100 µM
same,TGI,U251 CNS,> 100 µM
same,TGI,UACC-257 melanoma,> 100 µM
same,TGI,UO-31 renal,> 100 µM
O=S1c2ccccc2SCSc2ccccc21,TGI,786-0 renal,> 100 µM
same,TGI,A498 renal,> 100 µM
same,TGI,A549 NSCLC,> 100 µM
same,TGI,ACHN renal,> 100 µM
same,TGI,CAKI-1 renal,> 100 µM
same,TGI,COLO 205 colon,> 100 µM
same,TGI,DU-145 prostate,> 100 µM
same,TGI,HCC-2998 colon,> 100 µM
same,TGI,HCT-116 colon,> 100 µM
same,TGI,HCT-15 colon,> 100 µM
same,TGI,HOP-62 NSCLC,> 100 µM
same,TGI,HOP-92 NSCLC,> 100 µM
same,TGI,HT29 colon,> 100 µM
same,TGI,K-562 leukemia,75.8 µM
same,TGI,KM12 colon,> 100 µM
same,TGI,M14 melanoma,> 100 µM
same,TGI,MALME-3M melanoma,> 100 µM
same,TGI,MCF7 breast,> 100 µM
same,TGI,MDA-MB-231 breast,> 100 µM
same,TGI,MDA-N,> 100 µM
same,TGI,MOLT-4 leukemia,> 100 µM
same,TGI,NCI-H23 lung,> 100 µM
same,TGI,NCI-H460 lung,> 100 µM
same,TGI,NCI-H522 lung,> 100 µM
same,TGI,NCI/ADR-RES ovarian,> 100 µM
same,TGI,OVCAR-3 ovarian,> 100 µM
same,TGI,OVCAR-4 ovarian,> 100 µM
same,TGI,OVCAR-5 ovarian,> 100 µM
same,TGI,OVCAR-8 ovarian,> 100 µM
same,TGI,PC-3 prostate,> 100 µM
same,TGI,RPMI-8226 leukemia,70.1 µM
same,TGI,RXF 393 renal,> 100 µM
same,TGI,SF-268 CNS,> 100 µM
same,TGI,SF-295 CNS,> 100 µM
same,TGI,SF-539 CNS,> 100 µM
same,TGI,SK-MEL-2 melanoma,> 100 µM
same,TGI,SK-MEL-5 melanoma,> 100 µM
same,TGI,SK-OV-3 ovarian,> 100 µM
same,TGI,SN12C renal,> 100 µM
same,TGI,SNB-19 CNS,> 100 µM
same,TGI,SR leukemia,91.1 µM
same,TGI,T-47D breast,> 100 µM
same,TGI,TK-10 renal,> 100 µM
same,TGI,U251 CNS,> 100 µM
same,TGI,UACC-62 melanoma,> 100 µM
same,TGI,UO-31 renal,> 100 µM
